Experimental data taken from PubChem BioAssay AID624444 (Broad Institute, 2012).
Calls of active or inactive are those of the source.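 The calls were made as follows: active = fitted curve reaches 35% signal loss at a dose no higher than twice the top tested dose; inconclusive = flat fit with 30 to 70% loss, or poor fit; inactive = the rest.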

What follows are molecules tested on 26S proteasome chymotrypsin-like activity (human) (assay: cellular 26S proteasome inhibition – U2OS cells, luminescence, dry powder, mechanism study for HSF1 activator project, dose response (AID 624444)). Settings: Proteasome-Glo chymotrypsin luminescence.
`O=C(Nc1nc(SCc2ccccc2)ns1)C1CCC1` showed an AC35 of 35.4 µM. `Cc1ccccc1CSc1nnc(N)s1` showed an AC35 of 26 µM.

Same assay, conditions: Proteasome-Glo chymotrypsin luminescence, at 38 µM (top of the series)
For `Nc1nc(S(=O)(=O)Cc2ccccc2)ns1`, the activity change, negative = inhibition was -9% (inactive). `O=C(Nc1ccccc1)Nc1nc(SCc2ccccc2)ns1` was tested, and the activity change, negative = inhibition was -37.2% (inactive). `Nc1nc(SCc2ccc(Cl)cc2Cl)ns1` was tested, and the activity change, negative = inhibition was 41.7% (inactive). For `Cc1ccccc1CSc1nsc(N)n1`, the activity change, negative = inhibition was -3.56% (inactive). `Cc1ccccc1CSc1n[nH]c(N)n1` was tested, and the activity change, negative = inhibition was 19.2% (inactive). In the case of `Nc1nc(SCc2ccc(F)cc2)ns1`, the activity change, negative = inhibition is reported as -32% (inactive). In the case of `Cc1cccc(CSc2nsc(N)n2)c1`, the activity change, negative = inhibition is reported as 3.69% (inactive). For `Nc1nc(SCc2ccccc2)ns1`, the activity change, negative = inhibition was -11% (inactive). In the case of `Nc1nc(SCc2ccccc2Cl)ns1`, the activity change, negative = inhibition is reported as -9.05% (inactive). For `O=C(Nc1nc(SCc2ccccc2)ns1)C1CC=CCC1` (configuration not stated), the activity change, negative = inhibition was -29.4% (inactive).
